Earlier results on 1 compound are cited in patent US20210393628A1, “COMPOSITIONS AND METHODS FOR MODULATING T CELL EXHAUSTION” (The Board of Trustees of the Leland Stanford Junior …, priority 2018, published 2021).

In the series the test system is tonically signaling CAR T cells. The following applies: expanded in the presence of dasatinib.

Regarding `Cc1nc(Nc2ncc(C(=O)Nc3c(C)cccc3Cl)s2)cc(N2CCN(CCO)CC2)n1` [dasatinib], the cytotoxicity entry is on record as “augmented”.
